Values quoted from earlier work in US11135271B2, “Glucagon derivatives with improved stability” (HANMI PHARM. CO., LTD., priority 2014, dated 2021).

Legend:
[1] = when taken for 1 year
[2] = according to reports

## CCCCCCCCCCC[C@@H](C[C@@H]1OC(=O)[C@H]1CCCCCC)OC(=O)[C@H](CC(C)C)NC=O [Orlistat]
[1]
  weight loss: about 4 kg

## Cc1c(C(=O)NN2CCCCC2)nn(-c2ccc(Cl)cc2Cl)c1-c1ccc(Cl)cc1 [Rimonabant]
[2]
  side-effect: central nervous system disorder

## CC(C)CC(N(C)C)C1(c2ccc(Cl)cc2)CCC1 (stereo not drawn) [Sibutramine]
[2]
  side-effect: cardiovascular side-effects
